Patent publication US4983622A, “6-substituted-4-dialkylaminotetrahydrobenz(c,d)indoles” (Eli Lilly and Company, priority 1985, dated 1991)

Assays:
[1] = system: dopamine uptake, bovine striatal membrane; details: in vitro; cited from earlier work
[2] = target: ^3 H-serotonin (^3 H-5HT) receptor binding, rat cerebral cortex membranes; experiment: Receptor binding, inhibition of specific ^3 H-5HT (tritiated serotonin) binding; design: species or system male Wistar rats; details: 15 min at 37°, pH 7.4, 2-3 nM ^3 H-serotonin, read-out: ^3 H-Ligand-IC50, ^3 H-5HT
[3] = target: T1, ^3 H-spiperone receptor binding, rat cerebral cortex membranes (Rattus norvegicus, UniProt P14842); experiment: Receptor binding, inhibition of specific ^3 H-spiperone binding; design: species or system male Wistar rats; details: 15 min at 37°, pH 7.4, 0.6-0.7 nM ^3 H-spiperone, read-out: ^3 H-Ligand-IC50, ^3 H-SPIP
T1 construct: The cerebral cortex was dissected out and then homogenized and centrifuged; from tissue; host or cells: cerebral cortex membranes of male Wistar rats
T1 sequence (P14842 whole entry): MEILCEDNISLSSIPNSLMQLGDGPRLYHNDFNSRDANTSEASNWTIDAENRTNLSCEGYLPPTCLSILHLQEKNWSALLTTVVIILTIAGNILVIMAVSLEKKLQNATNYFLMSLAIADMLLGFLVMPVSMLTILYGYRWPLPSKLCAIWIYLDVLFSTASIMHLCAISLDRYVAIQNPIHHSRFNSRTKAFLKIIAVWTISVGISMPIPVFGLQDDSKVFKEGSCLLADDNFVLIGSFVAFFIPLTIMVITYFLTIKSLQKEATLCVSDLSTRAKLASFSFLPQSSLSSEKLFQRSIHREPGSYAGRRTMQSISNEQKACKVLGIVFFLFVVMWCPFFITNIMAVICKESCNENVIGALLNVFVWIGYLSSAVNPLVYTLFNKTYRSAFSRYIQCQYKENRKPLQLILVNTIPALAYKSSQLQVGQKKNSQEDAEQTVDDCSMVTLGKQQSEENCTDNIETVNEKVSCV
Experimental: The cerebral cortex was dissected out and then homogenized and centrifuged according to the method described by Nelson and coworkers Mol. Pharmacol., 14, 983-995 (1978), using preincubation in buffer without added monoamine oxidase inhibitor in order to eliminate endogenous serotonin. For receptor binding, each sample contained 300-400 μg. of membrane protein and 10 μM pargyline in addition to the ^3 H-ligand in 1 ml. of 0.05 M Tris buffer, pH=7.4. The assay of serotonin binding was done following the method of Bennett and Snyder, Mol. Pharmacol., 12, 373-389 (1976), and that for tritiated spiperone according to Peroutka and Snyder, Mol. Pharmacol. 16 687-699 (1979). The samples were incubated for 15 minutes at 37° and were then filtered through GF/C glass fiber filter pads using a Brandel M-24 cell harvester modified for receptor binding. After two 5 ml. rinses, the filter discs were put into scintillation vials and counted in 10 ml. of Amersham PCS scintillation fluid. Nonspecific binding of ^3 H-serotonin (^3 H-5HT) was determined in the presence of 10^-5 M serotonin and of ^3 H-spiperone in the presence of 10^-6 M LSD. Specific binding was calculated as the difference between total binding with no added nonradioactive compound and the nonspecific binding.

serum corticosteroids = experiment: Serum corticosterone; assay type: in vivo, Wistar rats; details: 0.3 mg/kg s.c., 1 hour; control 7 ± 1; * statistically significant
Experimental: (§1) The following protocol was employed. 150-200 g. Wistar rats were given 0.3 mg/kg subcutaneously of (±)-4-di-n-propylamino-6-substituted-1,3,4,5-tetrahydrobenz[c,d]indole.Then, 60 minutes later each rat was decapitated and the hypothalamus and striatum were dissected out and extracted. The amounts of homovanillic acid (HVA) and 3,4-dihydroxyphenylacetic acid (DOPAC) in the striatum and of 5-hydroxyindoleacetic acid (5HIAA) in the hypothalamus were measured by high-performance liquid chromatography, using electrochemical detection. Serum corticosteroids were also measured. In the table, columns 1 and 2 give the substitution pattern in the compounds of formula IV, columns 3-5, the 5HT or dopamine metabolite concentrations, and column 6, the serum corticosteroids.
(§2) Compounds were injected at 0.3 mg/kg s.c. 1 hour before rats were killed.

[4] = system: dopamine metabolites in striatum; experiment: Changes in dopamine metabolites (DOPAC, HVA) in striatum; assay type: in vivo, Wistar rats; details: 0.3 mg/kg s.c., 1 hour, * statistically significant; for Dopamine Metabolites In Striatum, HVA: control 4.24 ± .27; for Dopamine Metabolites In Striatum, DOPAC: control 5.58 ± .38
Experimental: (§3) Secondly, as a measure of central serotonin agonist activity, the decrease of serotonin metabolites in brain was measured. Also the measure of dopamine agonist activity was indicated by changes in dopamine metabolites.
as §1, §2

[5] = system: serotonin metabolites in brain (5HIAA in hypothalamus); experiment: Decrease of serotonin metabolite (5HIAA) in hypothalamus; assay type: in vivo, Wistar rats; details: 0.3 mg/kg s.c., 1 hour; control 2.59 ± .11; * statistically significant
Experimental: as §3, §1, §2

[6] = system: serotonin turnover in brain (5-HTP accumulation); experiment: 5-HTP accumulation in hypothalamus after decarboxylase block by m-hydroxybenzylhydrazine (serotonin turnover); assay type: in vivo, Wistar rats
Experimental: Thirdly, as a measure of central serotonin agonist activity, the test rats received (±)-4-di-n-propylamino-6-methoxy-1,3,4,5-tetrahydrobenz[c,d]indole. The decrease of serotonin turnover in brain was measured as a function of 5-hydroxytryptophane (5-HTP) accumulation when the decarboxylation of 5-HTP is blocked by m-hydroxybenzylhydrazine, using the above protocol, except that thirty minutes after injection of the drug, m-hydroxybenzylhydrazine was injected at 100 mg./kg. i.p. Then, 40 minutes later each rat was decapitated, the hypothalamus dissected out and extracted. The amount of 5-HTP in each extract were measured by high-performance liquid chromatography, using electrochemical detection. In normal rats, 5-HTP brain levels are so low as to be virtually undetectable. Thus, the control group received the same dose of m-hydroxybenzylhydrazine as the test rats but no drug.

serotonin = details: Harris and Uhle; cited from earlier work

Row | SMILES | selective dopamine agonist, action in inhibiting dopamine uptake [1] | IC50 [2] [nM] | IC50 [3] [nM] | Serum Corticosterone (serum corticosteroids) [MCG/100 ML] | Dopamine Metabolites In Striatum, HVA [4] | Dopamine Metabolites In Striatum, DOPAC [4] | 5HIAA In Hypothalamus [5] | 5HTP Level in Nanomoles of Hypothalamus ± S.E. ([6]; 0.03 mg/kg, m-hydroxybenzylhydrazine 100 mg/kg i.p., zero dose 1.81 ± 0.11) [Nanomoles] | 5HTP Level in Nanomoles of Hypothalamus ± S.E. ([6]; 0.10 mg/kg, m-hydroxybenzylhydrazine 100 mg/kg i.p., zero dose 1.81 ± 0.11, * P < .05) [Nanomoles] | 5HTP Level in Nanomoles of Hypothalamus ± S.E. ([6]; 0.30 mg/kg, m-hydroxybenzylhydrazine 100 mg/kg i.p., zero dose 1.81 ± 0.11, * P < .05) [Nanomoles] | 5HTP accumulation ([6]; certain dose levels, hypothalamus) | 5HTP Level in Nanomoles of Hypothalamus ± S.E. ([6]; ip, 0.01 mg/kg) [Nanomoles] | serotonin antagonism (serotonin)
1 | CCCN(CCC)C1Cc2cccc3[nH]cc(c23)C1 (racemic) [(±)-4-di-n-propylamino-1,3,4-5-tetrahydrobenz[c,d]indole] | selective dopamine agonist |  |  |  |  |  |  |  |  |  |  |  | 
2 | CCCN(CCC)C1Cc2c[nH]c3ccc(OC)c(c23)C1 (racemic) [(±)-4-di-n-propylamino-6-methoxy-1,3,4,5-tetrahydrobenz[c,d]indole] |  | 50 | 950 | 48 ± 2 | 2.43 ± .18 NMoles/G | 4.61 ± .10 NMoles/G | 1.51 ± .05 NMoles/G | 1.72 ± 0.07 | 1.16 ± 0.05 | 0.97 ± 0.03 | significantly decreased 5HTP accumulation | 1.85 ± 0.06 | 
3 | COc1ccc2[nH]cc3c2c1CC(N(C)C)C3 (racemic) [(±)-4-dimethylamino-6-methoxy-1,3,4,5-tetrahydrobenz[c,d]indole] |  | 70 | 1490 | 41 ± 4 | 4.68 ± .21 NMoles/G | 7.15 ± .23 NMoles/G | 1.69 ± .07 NMoles/G |  |  |  |  |  | 
4 | CC(=O)NC1Cc2c[nH]c3cccc(c23)C1=O (stereo not shown) [4-acetylamino-5-oxo derivative] |  |  |  |  |  |  |  |  |  |  |  |  | one exception
